Experimental data published in ChEMBL document CHEMBL1201862, “PubChem BioAssay data set” (2004).
Where “and” joins values, the source holds several entries; their conditions need not be identical. Equal values may be shown once. Calls of active or inactive are those of the source.

Tests used:
[1] = target: Cytochrome P450 3A4 (Homo sapiens, UniProt P08684); conditions: Potency;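 note: confirmatory qHTS run detecting inhibitors and substrates of CYP3A4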
[2] = target: Cytochrome P450 2C9 (Homo sapiens, UniProt P11712); conditions: Potency
Sequence of Cytochrome P450 2C9 (P11712 whole entry): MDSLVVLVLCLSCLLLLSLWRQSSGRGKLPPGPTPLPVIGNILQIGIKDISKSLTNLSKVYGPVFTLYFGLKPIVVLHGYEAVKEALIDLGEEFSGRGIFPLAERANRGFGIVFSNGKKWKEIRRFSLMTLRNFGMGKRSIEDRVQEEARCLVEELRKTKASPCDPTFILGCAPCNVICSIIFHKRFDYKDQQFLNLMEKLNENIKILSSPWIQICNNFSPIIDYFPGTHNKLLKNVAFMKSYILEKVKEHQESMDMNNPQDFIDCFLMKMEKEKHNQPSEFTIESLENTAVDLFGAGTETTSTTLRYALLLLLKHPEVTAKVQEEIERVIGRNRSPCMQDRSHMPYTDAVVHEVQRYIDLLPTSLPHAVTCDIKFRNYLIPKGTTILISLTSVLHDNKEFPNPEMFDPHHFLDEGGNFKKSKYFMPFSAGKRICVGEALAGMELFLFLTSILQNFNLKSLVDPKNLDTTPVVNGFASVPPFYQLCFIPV

[3] = target: Induced myeloid leukemia cell differentiation protein Mcl-1 (Homo sapiens, UniProt Q07820); type: functional
Sequence of Induced myeloid leukemia cell differentiation protein Mcl-1 (Q07820 whole entry): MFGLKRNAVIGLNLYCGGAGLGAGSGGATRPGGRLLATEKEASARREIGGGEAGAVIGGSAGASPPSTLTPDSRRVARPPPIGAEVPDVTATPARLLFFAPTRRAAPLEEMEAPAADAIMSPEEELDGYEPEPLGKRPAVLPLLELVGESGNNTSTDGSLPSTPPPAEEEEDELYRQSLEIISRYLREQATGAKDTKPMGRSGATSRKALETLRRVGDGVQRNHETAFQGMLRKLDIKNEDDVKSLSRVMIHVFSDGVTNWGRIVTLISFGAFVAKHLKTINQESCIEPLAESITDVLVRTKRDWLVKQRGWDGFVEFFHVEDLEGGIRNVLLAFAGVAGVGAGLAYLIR

[4] = target: T1, Hexokinase HKDC1 (Homo sapiens, UniProt Q2TB90); assay: HKDC1 hexokinase inhibitors, dose response, biochemical, W721R variant (AID 504729); type: functional
T1 sequence (Q2TB90 whole entry): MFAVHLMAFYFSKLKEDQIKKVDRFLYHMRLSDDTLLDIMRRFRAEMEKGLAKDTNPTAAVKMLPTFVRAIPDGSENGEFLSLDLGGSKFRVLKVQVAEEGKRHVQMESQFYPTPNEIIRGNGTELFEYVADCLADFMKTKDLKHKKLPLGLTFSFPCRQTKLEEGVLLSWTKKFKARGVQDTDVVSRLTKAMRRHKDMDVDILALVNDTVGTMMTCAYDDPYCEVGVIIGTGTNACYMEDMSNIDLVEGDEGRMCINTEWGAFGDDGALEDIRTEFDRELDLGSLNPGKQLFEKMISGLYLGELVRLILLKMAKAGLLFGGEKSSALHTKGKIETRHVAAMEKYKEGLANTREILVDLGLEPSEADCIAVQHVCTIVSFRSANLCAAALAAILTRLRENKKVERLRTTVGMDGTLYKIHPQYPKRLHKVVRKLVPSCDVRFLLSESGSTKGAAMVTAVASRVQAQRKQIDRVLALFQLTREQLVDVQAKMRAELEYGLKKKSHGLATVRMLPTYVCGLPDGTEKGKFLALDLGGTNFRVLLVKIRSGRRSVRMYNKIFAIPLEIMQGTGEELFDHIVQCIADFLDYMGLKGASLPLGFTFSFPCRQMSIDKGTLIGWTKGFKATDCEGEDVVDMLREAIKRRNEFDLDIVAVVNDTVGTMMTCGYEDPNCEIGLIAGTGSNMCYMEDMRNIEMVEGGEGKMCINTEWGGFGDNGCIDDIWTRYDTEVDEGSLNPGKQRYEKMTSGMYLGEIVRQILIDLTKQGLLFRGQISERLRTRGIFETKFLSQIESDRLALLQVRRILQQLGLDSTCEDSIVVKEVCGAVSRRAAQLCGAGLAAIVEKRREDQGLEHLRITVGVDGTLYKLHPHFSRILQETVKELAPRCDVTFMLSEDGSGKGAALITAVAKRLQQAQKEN

[5] = target: T2, Polyadenylate-binding protein 1 (Homo sapiens, UniProt P11940); assay: PABP1 MLLE–PAM2 binding inhibitor potency, dose response, biochemical, fluorescence polarization, FITC-PAM2 peptide (AID 602259); type: functional; conditions: read-out: IC50_Mean
T2 sequence (P11940 whole entry): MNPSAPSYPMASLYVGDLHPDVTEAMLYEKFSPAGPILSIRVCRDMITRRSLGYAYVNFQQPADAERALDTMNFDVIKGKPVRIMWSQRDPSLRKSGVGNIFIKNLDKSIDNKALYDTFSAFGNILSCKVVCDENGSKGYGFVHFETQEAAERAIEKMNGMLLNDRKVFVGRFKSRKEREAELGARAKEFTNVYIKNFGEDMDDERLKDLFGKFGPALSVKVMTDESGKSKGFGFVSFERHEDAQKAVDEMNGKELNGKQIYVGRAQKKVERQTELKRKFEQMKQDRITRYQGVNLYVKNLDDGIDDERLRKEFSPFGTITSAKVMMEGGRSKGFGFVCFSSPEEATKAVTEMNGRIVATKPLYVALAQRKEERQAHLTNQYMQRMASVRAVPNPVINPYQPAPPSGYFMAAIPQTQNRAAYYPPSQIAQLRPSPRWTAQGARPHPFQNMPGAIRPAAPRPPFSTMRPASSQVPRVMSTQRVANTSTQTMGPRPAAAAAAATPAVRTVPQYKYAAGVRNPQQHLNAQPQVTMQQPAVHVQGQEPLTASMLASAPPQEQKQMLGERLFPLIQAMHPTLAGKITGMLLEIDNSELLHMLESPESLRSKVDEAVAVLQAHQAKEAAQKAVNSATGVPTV

[6] = test system: Vero; assay: Vero cell cytotoxicity, cytotoxicity control for flavivirus capping enzyme inhibitors (AID 588742); type: functional; conditions: Chlorocebus sabaeus
[7] = target: T3, Voltage-gated N-type calcium channel alpha-1B subunit/Amyloid beta A4 precursor protein-binding family A member 1 (Homo sapiens, UniProt Q00975+Q02410); type: protein assay
T3 sequence (Q00975 whole entry): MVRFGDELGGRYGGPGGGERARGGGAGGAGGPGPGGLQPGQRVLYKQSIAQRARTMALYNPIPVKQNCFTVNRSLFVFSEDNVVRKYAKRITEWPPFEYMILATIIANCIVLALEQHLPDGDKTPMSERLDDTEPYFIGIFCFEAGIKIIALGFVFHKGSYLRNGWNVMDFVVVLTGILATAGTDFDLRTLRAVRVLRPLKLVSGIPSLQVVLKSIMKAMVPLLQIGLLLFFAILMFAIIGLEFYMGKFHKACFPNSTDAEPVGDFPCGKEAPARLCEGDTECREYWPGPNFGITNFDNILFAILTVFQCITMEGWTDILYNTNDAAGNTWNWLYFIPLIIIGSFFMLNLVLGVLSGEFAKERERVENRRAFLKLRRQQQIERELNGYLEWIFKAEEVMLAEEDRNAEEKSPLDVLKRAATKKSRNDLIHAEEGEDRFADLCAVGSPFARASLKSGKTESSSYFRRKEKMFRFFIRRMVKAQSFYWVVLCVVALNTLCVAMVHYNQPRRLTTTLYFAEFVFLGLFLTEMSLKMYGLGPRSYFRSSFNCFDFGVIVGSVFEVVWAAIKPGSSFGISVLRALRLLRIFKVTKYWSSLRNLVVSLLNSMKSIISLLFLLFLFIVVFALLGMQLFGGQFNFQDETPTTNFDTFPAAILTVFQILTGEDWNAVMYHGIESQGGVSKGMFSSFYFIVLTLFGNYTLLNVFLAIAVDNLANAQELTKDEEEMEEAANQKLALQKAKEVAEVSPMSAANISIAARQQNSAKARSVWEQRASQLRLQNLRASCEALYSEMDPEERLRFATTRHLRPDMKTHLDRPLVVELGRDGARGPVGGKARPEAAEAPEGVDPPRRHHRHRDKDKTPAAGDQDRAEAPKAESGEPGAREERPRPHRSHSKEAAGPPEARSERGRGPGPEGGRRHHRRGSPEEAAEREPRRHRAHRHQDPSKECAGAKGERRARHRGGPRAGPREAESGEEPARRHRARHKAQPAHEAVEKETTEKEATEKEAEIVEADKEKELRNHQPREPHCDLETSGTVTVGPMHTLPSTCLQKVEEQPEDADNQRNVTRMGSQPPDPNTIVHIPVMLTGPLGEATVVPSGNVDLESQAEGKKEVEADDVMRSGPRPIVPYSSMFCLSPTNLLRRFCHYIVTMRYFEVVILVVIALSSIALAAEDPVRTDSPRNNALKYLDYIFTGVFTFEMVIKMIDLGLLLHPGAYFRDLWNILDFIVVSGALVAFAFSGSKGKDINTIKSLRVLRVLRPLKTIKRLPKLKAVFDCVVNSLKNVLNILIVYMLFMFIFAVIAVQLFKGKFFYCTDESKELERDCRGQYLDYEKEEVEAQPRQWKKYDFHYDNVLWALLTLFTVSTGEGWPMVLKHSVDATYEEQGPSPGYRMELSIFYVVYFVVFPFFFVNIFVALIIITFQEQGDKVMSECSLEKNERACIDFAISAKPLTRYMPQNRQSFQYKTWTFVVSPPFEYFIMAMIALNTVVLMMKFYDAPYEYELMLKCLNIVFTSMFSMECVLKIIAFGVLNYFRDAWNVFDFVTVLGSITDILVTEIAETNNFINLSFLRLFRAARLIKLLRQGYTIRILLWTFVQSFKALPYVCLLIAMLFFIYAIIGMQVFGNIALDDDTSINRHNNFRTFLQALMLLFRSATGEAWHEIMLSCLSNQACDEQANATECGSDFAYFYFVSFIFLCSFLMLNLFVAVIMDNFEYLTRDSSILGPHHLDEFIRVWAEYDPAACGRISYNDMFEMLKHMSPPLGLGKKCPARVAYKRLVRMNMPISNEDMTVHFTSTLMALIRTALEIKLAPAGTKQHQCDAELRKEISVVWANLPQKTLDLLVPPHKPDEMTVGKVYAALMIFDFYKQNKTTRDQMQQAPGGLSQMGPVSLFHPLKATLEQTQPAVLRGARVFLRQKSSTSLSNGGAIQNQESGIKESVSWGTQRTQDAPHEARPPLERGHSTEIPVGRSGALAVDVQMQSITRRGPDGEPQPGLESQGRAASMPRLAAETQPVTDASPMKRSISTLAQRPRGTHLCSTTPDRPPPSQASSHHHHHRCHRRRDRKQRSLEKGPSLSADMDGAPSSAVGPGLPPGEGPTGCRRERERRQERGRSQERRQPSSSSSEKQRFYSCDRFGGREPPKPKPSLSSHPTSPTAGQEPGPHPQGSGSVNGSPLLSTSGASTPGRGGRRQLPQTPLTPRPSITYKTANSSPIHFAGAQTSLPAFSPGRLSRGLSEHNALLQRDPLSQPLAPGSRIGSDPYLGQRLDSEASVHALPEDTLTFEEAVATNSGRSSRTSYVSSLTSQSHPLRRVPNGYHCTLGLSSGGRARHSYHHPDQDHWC
T3 sequence (Q02410 whole entry): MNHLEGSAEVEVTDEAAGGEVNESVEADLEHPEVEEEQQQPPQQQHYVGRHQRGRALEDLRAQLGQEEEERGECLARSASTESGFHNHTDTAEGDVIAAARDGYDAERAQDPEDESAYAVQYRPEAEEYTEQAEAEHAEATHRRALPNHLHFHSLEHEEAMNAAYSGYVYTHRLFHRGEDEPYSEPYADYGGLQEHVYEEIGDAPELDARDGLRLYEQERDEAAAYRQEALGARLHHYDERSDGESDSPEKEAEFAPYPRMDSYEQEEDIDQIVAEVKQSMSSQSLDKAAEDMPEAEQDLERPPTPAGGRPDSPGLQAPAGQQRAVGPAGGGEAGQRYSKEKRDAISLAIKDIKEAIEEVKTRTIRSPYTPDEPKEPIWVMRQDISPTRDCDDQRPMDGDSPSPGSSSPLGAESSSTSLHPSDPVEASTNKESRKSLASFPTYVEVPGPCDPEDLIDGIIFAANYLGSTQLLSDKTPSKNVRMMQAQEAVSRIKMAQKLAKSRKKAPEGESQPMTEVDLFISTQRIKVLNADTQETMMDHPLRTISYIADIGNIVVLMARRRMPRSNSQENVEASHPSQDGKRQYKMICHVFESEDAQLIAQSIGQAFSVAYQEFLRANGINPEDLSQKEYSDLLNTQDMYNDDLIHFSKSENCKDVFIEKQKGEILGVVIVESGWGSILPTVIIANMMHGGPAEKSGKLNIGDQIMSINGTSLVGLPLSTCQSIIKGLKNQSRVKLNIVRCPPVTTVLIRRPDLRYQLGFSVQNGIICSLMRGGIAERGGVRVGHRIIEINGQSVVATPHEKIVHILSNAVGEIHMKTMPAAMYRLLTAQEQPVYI

[8] = target: T3, Voltage-gated N-type calcium channel alpha-1B subunit/Amyloid beta A4 precursor protein-binding family A member 1; type: protein assay; remark: listed apart in the source
[9] = target: T4, Zinc finger protein mex-5 (Caenorhabditis elegans, UniProt Q9XUB2); assay: MEX-5/TCR-2 RNA interaction inhibitors, dose response, biochemical, C. elegans, fluorescence polarization (AID 1960)
T4 sequence (Q9XUB2 whole entry): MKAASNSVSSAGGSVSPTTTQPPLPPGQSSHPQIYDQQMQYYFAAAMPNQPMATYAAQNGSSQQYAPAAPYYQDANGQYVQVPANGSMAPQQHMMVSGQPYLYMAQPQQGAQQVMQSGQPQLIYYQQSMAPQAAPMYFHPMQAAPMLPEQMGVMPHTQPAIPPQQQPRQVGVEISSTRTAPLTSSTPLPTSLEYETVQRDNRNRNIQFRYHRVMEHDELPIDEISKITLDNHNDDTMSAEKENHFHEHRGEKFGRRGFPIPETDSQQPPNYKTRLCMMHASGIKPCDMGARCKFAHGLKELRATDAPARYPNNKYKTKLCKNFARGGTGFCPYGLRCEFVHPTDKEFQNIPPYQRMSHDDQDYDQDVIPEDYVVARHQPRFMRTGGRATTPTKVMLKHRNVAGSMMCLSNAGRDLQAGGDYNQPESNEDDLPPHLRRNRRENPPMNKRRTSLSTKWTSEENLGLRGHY

[10] = target: T2, Polyadenylate-binding protein 1; assay: PABP1 MLLE–PAM2 interaction inhibitors, dose response, miRNA deadenylation inhibitor project, biochemical, fluorescence polarization, Cy5-PAM2 peptide, secondary (AID 602260); type: functional; conditions: read-out: IC50_Mean
[11] = target: Genome polyprotein (dengue virus type 2, UniProt P29990); assay: Dengue-2 NS5 methyltransferase inhibitors, primary screen, biochemical, confirmation dose response (AID 588689); type: functional
[12] = target: T5, RNA-binding protein pos-1 (Caenorhabditis elegans, UniProt G5EF15); assay: inhibitors of POS-1/mex-3 RNA binding, dose response, biochemical, fluorescence polarization (AID 1964);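 note: purified POS-1 fused to maltose binding protein made in E. coli; potency of compounds blocking POS-1 binding to fluorescent RNA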
T5 sequence (G5EF15 whole entry): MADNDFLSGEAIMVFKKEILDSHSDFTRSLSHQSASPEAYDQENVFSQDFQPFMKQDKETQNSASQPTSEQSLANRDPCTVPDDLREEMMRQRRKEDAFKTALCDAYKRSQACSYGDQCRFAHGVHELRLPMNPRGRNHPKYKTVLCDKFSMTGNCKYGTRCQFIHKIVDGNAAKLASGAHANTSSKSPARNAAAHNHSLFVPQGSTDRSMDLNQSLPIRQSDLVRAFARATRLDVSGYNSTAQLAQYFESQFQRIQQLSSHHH

[13] = test system: Vero; assay: cells; type: functional; conditions: Chlorocebus sabaeus
[14] = target: T6, Histone-lysine N-methyltransferase NSD2 (Homo sapiens, UniProt O96028); type: biochemical
T6 sequence (O96028 whole entry): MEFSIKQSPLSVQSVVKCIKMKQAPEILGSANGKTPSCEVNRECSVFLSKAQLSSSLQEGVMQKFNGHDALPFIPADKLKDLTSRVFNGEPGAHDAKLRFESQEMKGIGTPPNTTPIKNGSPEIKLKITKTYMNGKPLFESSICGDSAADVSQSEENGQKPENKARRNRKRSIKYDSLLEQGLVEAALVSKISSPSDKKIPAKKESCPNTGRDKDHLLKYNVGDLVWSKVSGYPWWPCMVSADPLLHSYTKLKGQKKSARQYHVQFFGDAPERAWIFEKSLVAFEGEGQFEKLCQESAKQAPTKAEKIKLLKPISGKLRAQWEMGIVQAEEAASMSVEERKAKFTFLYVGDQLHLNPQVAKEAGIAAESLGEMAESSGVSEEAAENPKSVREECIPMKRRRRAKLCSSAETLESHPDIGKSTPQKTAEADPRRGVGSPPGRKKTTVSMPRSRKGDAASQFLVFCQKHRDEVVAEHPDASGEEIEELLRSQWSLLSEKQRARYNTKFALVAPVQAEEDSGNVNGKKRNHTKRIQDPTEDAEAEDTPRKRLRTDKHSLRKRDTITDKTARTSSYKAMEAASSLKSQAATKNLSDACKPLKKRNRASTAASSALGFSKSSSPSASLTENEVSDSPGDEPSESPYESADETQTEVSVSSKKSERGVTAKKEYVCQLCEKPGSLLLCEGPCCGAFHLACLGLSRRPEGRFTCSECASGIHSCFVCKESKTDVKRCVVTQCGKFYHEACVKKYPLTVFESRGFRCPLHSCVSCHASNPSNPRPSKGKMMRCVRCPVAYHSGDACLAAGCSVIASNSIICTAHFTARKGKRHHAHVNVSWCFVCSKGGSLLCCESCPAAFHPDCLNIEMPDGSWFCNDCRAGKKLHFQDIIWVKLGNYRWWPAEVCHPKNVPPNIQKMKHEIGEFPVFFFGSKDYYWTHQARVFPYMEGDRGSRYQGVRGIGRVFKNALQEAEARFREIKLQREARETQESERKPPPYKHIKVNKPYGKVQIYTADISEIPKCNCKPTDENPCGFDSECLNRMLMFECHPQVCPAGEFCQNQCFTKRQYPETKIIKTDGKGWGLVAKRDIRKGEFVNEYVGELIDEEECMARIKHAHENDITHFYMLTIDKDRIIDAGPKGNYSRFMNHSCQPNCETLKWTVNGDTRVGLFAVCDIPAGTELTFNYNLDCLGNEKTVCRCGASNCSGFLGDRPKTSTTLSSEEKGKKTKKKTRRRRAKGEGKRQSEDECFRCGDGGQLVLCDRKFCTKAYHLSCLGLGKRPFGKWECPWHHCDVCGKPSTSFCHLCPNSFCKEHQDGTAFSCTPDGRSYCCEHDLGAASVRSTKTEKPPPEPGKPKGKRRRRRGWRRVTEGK

[15] = target: Glyceraldehyde-3-phosphate dehydrogenase (Homo sapiens, UniProt P04406)
Sequence of Glyceraldehyde-3-phosphate dehydrogenase (P04406 whole entry): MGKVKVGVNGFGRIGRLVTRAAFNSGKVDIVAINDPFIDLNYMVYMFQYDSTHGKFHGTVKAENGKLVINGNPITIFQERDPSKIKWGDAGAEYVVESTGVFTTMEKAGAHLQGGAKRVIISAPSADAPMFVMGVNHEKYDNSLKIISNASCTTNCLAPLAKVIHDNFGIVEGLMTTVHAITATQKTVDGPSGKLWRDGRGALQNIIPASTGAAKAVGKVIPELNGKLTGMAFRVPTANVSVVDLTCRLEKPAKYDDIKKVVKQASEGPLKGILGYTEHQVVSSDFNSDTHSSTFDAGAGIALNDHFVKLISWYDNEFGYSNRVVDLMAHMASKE

[16] = target: T7, Alkaline phosphatase, tissue-nonspecific isozyme (Homo sapiens, UniProt P05186); assay: human TNAP enzyme inhibitors, SAR follow-up, biochemical, luminescent, dose response (AID 1056)
T7 sequence (P05186 whole entry): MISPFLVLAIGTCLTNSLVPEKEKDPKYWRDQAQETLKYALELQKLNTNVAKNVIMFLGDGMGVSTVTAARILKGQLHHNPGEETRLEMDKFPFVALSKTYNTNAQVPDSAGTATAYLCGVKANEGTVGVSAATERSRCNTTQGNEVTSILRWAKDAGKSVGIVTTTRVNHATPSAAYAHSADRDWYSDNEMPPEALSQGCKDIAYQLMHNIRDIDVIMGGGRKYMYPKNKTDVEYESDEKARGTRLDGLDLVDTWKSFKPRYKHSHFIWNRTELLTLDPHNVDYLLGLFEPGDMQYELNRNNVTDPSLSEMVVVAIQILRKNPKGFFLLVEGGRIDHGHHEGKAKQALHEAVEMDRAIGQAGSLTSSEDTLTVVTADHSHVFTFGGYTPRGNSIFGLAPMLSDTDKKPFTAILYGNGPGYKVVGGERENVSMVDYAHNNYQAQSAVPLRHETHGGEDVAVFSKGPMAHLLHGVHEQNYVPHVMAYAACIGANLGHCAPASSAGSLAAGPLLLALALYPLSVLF

[17] = HEp-2 cell cytotoxicity, dose response, cytotoxicity control for RSV inhibitor project, HTS (AID 2410); type: functional; conditions: human respiratory syncytial virus
[18] = cells
[19] = target: T8, Estrogen receptor (Homo sapiens, UniProt P03372);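 note: potency for inhibiting coactivator peptide recruitment to the receptor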
T8 sequence (P03372 whole entry): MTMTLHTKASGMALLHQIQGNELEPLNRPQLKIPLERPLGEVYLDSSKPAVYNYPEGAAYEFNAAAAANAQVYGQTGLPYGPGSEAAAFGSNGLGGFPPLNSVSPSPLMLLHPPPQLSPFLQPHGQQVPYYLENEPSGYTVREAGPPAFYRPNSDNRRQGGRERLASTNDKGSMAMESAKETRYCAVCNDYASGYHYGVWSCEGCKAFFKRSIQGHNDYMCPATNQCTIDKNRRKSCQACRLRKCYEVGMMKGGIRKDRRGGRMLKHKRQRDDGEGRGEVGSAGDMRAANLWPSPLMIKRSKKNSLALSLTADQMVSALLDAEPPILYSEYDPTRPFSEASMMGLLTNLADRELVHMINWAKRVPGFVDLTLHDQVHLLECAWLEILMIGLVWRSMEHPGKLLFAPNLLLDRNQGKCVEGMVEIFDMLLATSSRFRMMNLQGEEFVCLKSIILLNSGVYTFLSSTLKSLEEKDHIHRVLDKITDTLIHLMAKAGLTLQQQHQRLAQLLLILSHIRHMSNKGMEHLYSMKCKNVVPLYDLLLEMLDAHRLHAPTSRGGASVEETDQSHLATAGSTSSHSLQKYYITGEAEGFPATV

Question: What does the source list for `COc1ccc(OC2C(O)COC2/C=C/c2ccccc2)cc1` (configuration not stated)?
Answer: AC50 [1]: 3.16 µM (inconclusive) and 3.98 µM (inconclusive); AC50 [2]: 3.16 µM (inconclusive) and 2.51 µM (inconclusive)

Question: For `CCN(CC)Cc1cc(O)c(CN(CC)CC)cc1O`, which IC50 [3] is on record?
Answer: 1.58 µM (active)

Question: And the IC50 [4]?
Answer: 17.4 µM (active)

Question: And the IC50 [5]?
Answer: > 66 µM (inactive)

Question: And the CC50 [6]?
Answer: > 40 µM (active)

Question: What about the IC50 [7] of the same compound?
Answer: > 56.8 µM (not active)

Question: What about the IC50 [8] of the same compound?
Answer: 2.05 µM (active)

Question: What about the EC50 [9] of the same compound?
Answer: 2.77 µM (active)

Question: What about the IC50 [10] of the same compound?
Answer: > 66 µM (inactive)

Question: What about the IC50 [11] of the same compound?
Answer: 28.1 µM (active)

Question: What about the EC50 [12] of the same compound?
Answer: 14.2 µM (active)

Question: And the CC50 [13]?
Answer: > 25 µM (active)

Question: And the AC50 [14]?
Answer: > 20 µM (inactive)

Question: Which IC50 [15] does the source give for `COC(=O)c1ccc(OC)c(S(=O)(=O)Nc2ccc3ccccc3c2)c1` here?
Answer: > 10 µM (inconclusive)

Question: And the IC50 [16]?
Answer: > 10 µM (inactive)

Question: Which results are given for `COc1ccccc1/C=C/C(=O)N1CCc2cc(OC)c(OC)cc2C1C` (configuration not stated)?
Answer: CC50 [17]: > 50 µM (active); IC50 [18]: 17.8 µM (active)

Question: With `O=C1C(Cl)=C(N2CCN(C/C=C/c3ccccc3)CC2)C(=O)N1c1ccc(C(F)(F)F)cc1` as the compound, how does the IC50 [15] read?
Answer: > 50 µM (inconclusive)

Question: For `Cc1ccc(NS(=O)(=O)c2cccc(C(=O)OCC(=O)NCc3ccco3)c2)cc1`, which IC50 [19] is on record?
Answer: 30.6 µM (not active)

Question: What does the source list for `Cc1ccc(NC(=O)C2CCCN2S(=O)(=O)c2cccc3cccnc23)c(C)c1` (configuration not stated)?
Answer: CC50 [17]: 42.9 µM (active); IC50 [18]: 1.86 µM (active)
